# Measured values taken from EPA's ToxValDB 9.5.
# System: Rattus norvegicus
# Settings: oral
# [1] = subchronic, gavage, M, Sprague-Dawley, Clinical Observation: Salivation + Hematology: NEUT increase + Histopathology: Forestomach-Erosion Forestomach-Cellular infiltration, …
# [2] = short-term, duration: 28 days, gavage, M, Sprague-Dawley, Clinical Observation: Reddish urine Soft stool DiarrheaSpontaneous locomotion decrease, Incomplete eyelid opening + Functional Observational…
# [3] = short-term, duration: 28 days, gavage, F, Wistar, Deaths + Clinical Observation: Thinly haired areas of skin Weakness Thin appearance Respiratory disorders Some resistance to dosing + Body …
# [4] = short-term, duration: 28 days, gavage, M, Wistar, Deaths + Clinical Observation: Thinly haired areas of skin Weakness Thin appearance Respiratory disorders Some resistance to dosing + Body …
# [5] = subchronic, gavage, M, Sprague-Dawley, Urinalysis: Round epithelial cell increase + Hematology: RBC decrease, HGB decrease, HCT decrease, RET increase, R + Blood Chemistry: a2-…
# [6] = short-term, duration: 28 days, gavage, M, Sprague-Dawley, Clinical Observation: Salivation Dark green urinelocomotor activity decrease, Staining around nose and mouth + Functional Observational …
# [7] = subchronic, gavage, M, Sprague-Dawley, Clinical Observation: Respiratory noise Irregular respiration Deep respiration R Soiled perigenital region R Oligo-stool R Hypothermia R + …
smiles,measurement,setting,value
"CN1CCN(C)C1=O [1,3-Dimethyl-2-imidazolidinone]",NOEL,"subchronic, gavage, M, Sprague-Dawley, Body Weight Changes: Gain decrease(trend) + Blood Chemistry: TG increase, T-Cho increase(trend)TP decrease, R a1-glb decrease, R beta-glb …",20 mg/kg-day
"C1CCC2=NCCCN2CC1 [1,8-Diazabicyclo[5.4.0]undec-7-ene]",NOAEL,[1],30 mg/kg-day
same,NOEL,[1],10 mg/kg-day
"Nc1c(Br)cc(Br)c2c1C(=O)c1ccccc1C2=O [1-Amino-2,4-dibromoanthraquinone]",NOAEL,[2],< 200 mg/kg-day
same,NOEL,[2],< 200 mg/kg-day
same,NOEL,"subchronic, duration: 13 weeks, diet, F, Fischer 344, Deaths + Clinical Observation: Lethargy Emaciation StaggeredHunched posture + Body Weight Changes: decrease + Food Consumption: decrease + …",< 170 mg/kg-day
same,NOEL,"subchronic, duration: 13 weeks, diet, M/F, Fischer 344, Deaths + Clinical Observation: Lethargy Emaciation StaggeredHunched posture + Body Weight Changes: decrease + Food Consumption: decrease + …",< 240 mg/kg-day
CC(O)CCl (centres undefined) [1-Chloro-2-propanol],NOEL,"chronic, duration: 14 weeks, water, M/F, Fischer 344, Body Weight Changes: decrease + Water Consumption: decrease + Urinalysis: Urine volume decrease, Specific gravity increase, Total protein …",< 7.36 mg/kg-day
CCCCCCCCCCCCCCCCO [1-Hexadecanol],NOAEL,[3],300 mg/kg-day
same,NOEL,[3],300 mg/kg-day
same,NOAEL,[4],300 mg/kg-day
same,NOEL,[4],100 mg/kg-day
same,NOAEL,"short-term, duration: 28 days, gavage, Sprague-Dawley",1000 mg/kg-day
same,NOAEL,"subchronic, duration: 13 weeks, diet, F, Crl, Body Weight Changes: decrease2064 + Food Consumption: decrease2064 + Absolute Organ Weight: Brain2064 Heart LiverSpleen Gonad + Relative …",875 mg/kg-day
same,NOAEL,"subchronic, duration: 13 weeks, diet, M, Crl, Body Weight Changes: decrease2064 + Food Consumption: decrease2064 + Absolute Organ Weight: Brain2064 Heart LiverSpleen Gonad + Relative …",723 mg/kg-day
"C=CC/C=C/C/C=C/C/C=C/C [1-Propene, tetramer]",NOAEL,[5],40 mg/kg-day
same,NOEL,[5],< 40 mg/kg-day
C=CCCCCCCCCCCCC [1-Tetradecene],NOAEL,"subchronic, gavage, M, Sprague-Dawley, Absolute Organ Weight: Liver increase + Relative Organ Weight: Liver increase + Histopathology: Liver-Hepatocyte cytoplasmic vacuolation",100 mg/kg-day
"Cc1cc(C)c(C)c(O)c1 [2,3,5-Trimethylphenol]",NOEL,"subchronic, gavage, M, Sprague-Dawley, Clinical Observation: Soiled perigenitalia of urine LethargyAtaxia gait(transient after administration) + Body Weight Changes: decrease(…",100 mg/kg-day
"Cl.Cl.Nc1ccc(O)c(N)c1 [2,4-Diaminophenol dihydrochloride]",NOAEL,[6],50 mg/kg-day
same,NOEL,[6],< 50 mg/kg-day
same,NOEL,"subchronic, duration: 13 weeks, gavage, M/F, Fischer 344, Deaths + Body Weight Changes: decrease>50 + Absolute Organ Weight: Liver increase, Thymus decrease + Relative Organ Weight: Right kidney …",< 12 mg/kg-day
"Cc1ccc(S(=O)(=O)O)c(C)c1 [2,4-Dimethylbenzenesulfonic acid]",LOEL,[7],500 mg/kg-day
same,NOEL,[7],100 mg/kg-day
"CC(C)=CC=C(C)C [2,5-Dimethyl-2,4-hexadiene]",NOEL,"subchronic, gavage, M, Sprague-Dawley, Clinical Observation: Soiled peri-genital + Body Weight Changes: decrease + Food Consumption: decrease(day1-8) + Hematology: WBC increase, …",< 100 mg/kg-day
C#CC(C)(C)O [2-Methyl-3-butyn-2-ol],NOAEL,"short-term, duration: 28 days, gavage, M/F, BOB:WISW, Deaths + Clinical Observation: Sedation Narcosis Hypothermia + Body Weight Changes: decrease + Food Consumption: decrease + Hematology: WBC …",50 mg/kg-day
Sc1ccc2ccccc2c1 [2-Naphthalenethiol],NOEL,"short-term, duration: 28 days, gavage, M/F, Sprague-Dawley, Functional Observational Battery: Landing foot splay decrease + Food Consumption: decrease + Water Consumption: increase + Urinalysis: …",8 mg/kg-day
Cc1cccc(C(C)(C)C)c1O [2-tert-Butyl-6-methylphenol],NOEL,"subchronic, gavage, M, Sprague-Dawley, Hematology: Ret increase, PT increase, APTT increase + Blood Chemistry: GOT increase, GPT increasegamma-GTP increase, Cho increase + …",8 mg/kg-day
BrC(Br)c1ccccc1OCC1CO1 (centres undefined) [2-{[2-(Dibromomethyl)phenoxy]methyl}oxirane],NOEL,"subchronic, gavage, M, Sprague-Dawley, Clinical Observation: Salivation (transient) + Absolute Organ Weight: Kidney increase + Relative Organ Weight: Kidney increase + …",8 mg/kg-day
"Clc1ccc(N=Nc2ccc(Cl)c(Cl)c2)cc1Cl [3,3',4,4'-Tetrachloroazobenzene]",NOEL,"subchronic, gavage, M/F, Fischer 344, Body Weight Changes: decrease + Hematology: Ret increase Hct decrease, Hgb decrease, RBC decrease, Plt decrease, WBC decrease, Seg decrease…",< 0.1 mg/kg-day
"[O-][N+](=Nc1ccc(Cl)c(Cl)c1)c1ccc(Cl)c(Cl)c1 [3,3',4,4'-Tetrachloroazoxybenzene]",NOEL,"subchronic, gavage, M/F, Fischer 344, Deaths + Body Weight Changes: decrease af>>>10 + Hematology: Plt decrease Hct decrease, Hgb decrease, RBC decrease Ret increase, WBC …",< 0.1 mg/kg-day
"COCC(CCC(C)C)(COC)C(C)C [3,3-Bis(methoxymethyl)-2,6-dimethylheptane]",NOEL,"short-term, duration: 28 days, gavage, M/F, Clinical Observation: Salivation + Blood Chemistry: BIL increase, CL decrease + Absolute Organ Weight: Liver increase + Relative Organ …",8 mg/kg-day
CC(O[Si](C)(C)C(C)(C)C)C1CNC1=O (centres undefined) [3-(1-{[tert-Butyl(dimethyl)silyl]oxy}ethyl)azetidin-2-one],NOEL,"short-term, duration: 28 days, gavage, M/F, Clinical Observation: Salivation + Blood Chemistry: TP increase, T-CHO increase, TG increase, Glu decrease, Ca increase + Organ Weight: …",8 mg/kg-day
Nc1cc(OCCOc2ccccc2)n[nH]1 [3-(2-Phenoxyethoxy)-1H-pyrazol-5-amine],NOEL,"short-term, duration: 28 days, gavage, M/F, Deaths + Clinical Observation: Salivation Locomotor activity decrease, Sedation Urinary incontinence + Body Weight Changes: Body weight …",40 mg/kg-day
O=C(O)c1cccnc1Cl [3-Carboxy-2-chloropyridine],NOEL,"short-term, duration: 28 days, gavage, M/F, Clinical Observation: Alopecia Salivation + Blood Chemistry: GOT increase, GPT increase, ALP increase, BUN increase + Necropsy: Liver - …",10 mg/kg-day
Nc1cccc(Cl)c1 [3-Chloroaniline],NOEL,"subchronic, gavage, M/F, Fischer 344, Deaths + Clinical Observation: Bluish discoloration of the genital and footpad regions + Body Weight Changes: decrease + Hematology: Hct …",< 10 mg/kg-day
"Cl.Cl.Nc1ccc(Cc2ccc(N)cc2)cc1 [4,4'-Methylenedianiline dihydrochloride]",NOEL,"subchronic, duration: 13 weeks, water, M/F, Fischer 344, Body Weight Changes: decrease + Histopathology: Liver/bile duct- Hyperplasia Thyroid-Adenomatous goiter Thyroid-Follicullar-cell hyperplasia…",30.4 mg/kg-day
Nc1ccc(Cl)cc1[N+](=O)[O-] [4-Chloro-2-nitroaniline],NOEL,"subchronic, gavage, M, Sprague-Dawley, Hematology: Hct decrease, Ret increase + Relative Organ Weight: Heat increase, Liver increase, Kidneys increase, Adrenals increase + …",10 mg/kg-day
COc1ccc(N)c([N+](=O)[O-])c1 [4-Methoxy-2-nitroaniline],NOEL,"subchronic, gavage, M, Sprague-Dawley, Clinical Observation: Orangish urine Soiled fur Salivation + Body Weight Changes: decrease(trend) + Food Consumption: decrease + Absolute …",< 12.5 mg/kg-day
Cc1ccc(O)c([N+](=O)[O-])c1 [4-Methyl-2-nitrophenol],NOAEL,"short-term, duration: 28 days, gavage, F, Sprague-Dawley, Clinical Observation: Sedation Ptosis Salivation Reddish tear Soiled perineal region + Urinalysis: Yellow colored urine pH decrease + …",60 mg/kg-day
same,NOEL,"short-term, duration: 28 days, gavage, M/F, Sprague-Dawley, Clinical Observation: Sedation Ptosis Salivation Reddish tear Soiled perineal region + Urinalysis: Yellow colored urine pH decrease + …",60 mg/kg-day
Cc1cnc[nH]1 [4-Methylimidazole],NOEL,"subchronic, diet, M/F, Fischer 344, Deaths + Body Weight Changes: decrease + Hematology: Hct decrease, Hgb decrease, Ret decrease, Plt decrease, RBC decrease + Blood Chemistry…",< 60 mg/kg-day
C=Cc1ccc(OC(C)(C)C)cc1 [4-tert-Butoxystyrene],NOEL,"short-term, duration: 28 days, gavage, M/F, Deaths + Clinical Observation: Salivation + Body Weight Changes: Body weight gain decrease + Food Consumption: decrease + Urinalysis: Urine…",20 mg/kg-day
CC(C)(C)c1ccc(O)c(O)c1 [4-tert-Butylcatechol],NOEL,"subchronic, diet, M/F, Fischer 344, Body Weight Changes: decrease + Food Consumption: decrease + Hematology: Hct decrease, Hgb decrease, RBC decrease + Blood Chemistry: ALT …",< 75 mg/kg-day
Nc1ccc(O)c(C(=O)O)c1 [5-Aminosalicylic acid],NOAEL,"chronic, duration: 91 days, gavage, F, Sprague-Dawley, Deaths + Urinalysis: Volume increase, Specific gravity decrease, Occult blood Na decrease, K decrease, Cl decrease + Hematology: RBC …",100 mg/kg-day
same,NOAEL,"chronic, duration: 91 days, gavage, M, Sprague-Dawley, Deaths + Urinalysis: Volume increase, Specific gravity decrease, Occult blood Na decrease, K decrease, Cl decrease + Hematology: RBC …",100 mg/kg-day
CCc1ccc(C)nc1 [5-Ethyl-2-methylpyridine],NOAEL,"short-term, duration: 28 days, gavage, M/F, Sprague-Dawley, Body Weight Changes: decrease + Food Consumption: decrease + Blood Chemistry: BUN increase, CRE increase, AST increase + Relative Organ …",30 mg/kg-day
"CCCCCc1ccc2c(c1)C(=O)c1ccccc1C2=O [9,10-Anthracenedione, 2-pentyl-]",NOEL,"short-term, duration: 28 days, gavage, F, Sprague-Dawley, Clinical Observation: Salivation (transient) + Hematology: RBC decrease, PT increase + Absolute Organ Weight: Liver increase + Relative …",15 mg/kg-day
NCCCCCCCCCCC(=O)O [11-Aminoundecanoic acid],NOEL,"subchronic, duration: 13 weeks, diet, M/F, Fischer 344, Deaths + Histopathology: Kidney - mineralization Kidney - transitional-cell hyperplasia Kidney/renal pelvis - hyperplasia",< 864 mg/kg-day
"CC1(C)CC(=O)CC(C)(C)N1[O] [(2,2,6,6-Tetramethyl-4-oxopiperidin-1-yl)oxidanyl]",NOEL,"short-term, duration: 28 days, gavage, M/F, Clinical Observation: Salivation + Hematology: Trend of Anemia + Absolute Organ Weight: Spleen increase, Liver increase + Histopathology: …",40 mg/kg-day
BrC=Cc1ccccc1 [(2-Bromovinyl)benzene],NOEL,"short-term, duration: 28 days, gavage, M/F, CD(SD), Deaths + Clinical Observation: Salivation + Urinalysis: Volume increase, Osmotic pressure decrease, Small epidermal cell + Blood Chemistry: …",30 mg/kg-day
"C[C@H](CCc1ccccc1)NC[C@H](O)c1ccc(O)c(C(N)=O)c1.Cl [(R,R)-Dilevalol hydrochloride]",NOEL,"subchronic, duration: 90 days, gavage, M/F, Sprague-Dawley, Clinical Observation: Salivation + Body Weight Changes: body weight gain decrease + Urinalysis: Volume increase, Specific gravity decrease…",60 mg/kg-day
"CC(=O)N(C)c1ccccc1 [Acetamide, N-methyl-N-phenyl-]",NOEL,"short-term, duration: 28 days, gavage, M/F, Sprague-Dawley, Deaths + Clinical Observation: Clonic convulsion Cyanosis Salivation Rearing decrease + Body Weight Changes: decrease + Food Consumption: …",< 20 mg/kg-day
C=CCOC(C)=O [Allyl acetate],NOEL,"subchronic, gavage, M/F, Fischer 344, Deaths + Body Weight Changes: decrease + Hematology: Hgb decrease, Plt increase, WBC increase + Blood Chemistry: TP decrease, Alb decrease, …",< 6 mg/kg-day
